Test results reported in US20160194299A1 (priority 2013, published 2016).
≈ marks a conversion by molar mass, not a printed value. Where two headings read alike, the source gives them in different places.

Tests used:
Mtb [1] = assay: microbe, parasite or virus in culture; format: cell-based, Mycobacterium tuberculosis; conditions: Mycobacterium tuberculosis, read-out: MIC (I)
Mtb [2] = assay: microbe, parasite or virus in culture; format: cell-based, Mycobacterium tuberculosis; conditions: Mycobacterium tuberculosis, read-out: MIC (III)
in vitro = conditions: African green monkey

## CCOC(=O)NC(=O)c1ccsc1NC(=O)c1cnc2cc(C)nn2c1C [Compound 65]
Mtb [1]
  MIC: < 1 µg/mL
Mtb [2]
  MIC: < 5 µg/mL
In vitro
  CC50: > 50 µg/mL

## CCOC(=O)NC(=O)c1cc(CC(=O)OC)sc1NC(=O)c1nc2cnccc2s1 [Compound 276]
Mtb [1]
  MIC: > 3 µg/mL
Mtb [2]
  MIC: > 25 µg/mL
In vitro
  CC50: 25 to 50 µg/mL (≈ 55.7 to 111 µM)

## CCOC(=O)NC(=O)c1ccsc1NC(=O)c1cnc2c(Br)cnn2c1 [Compound 266]
Mtb [1]
  MIC: < 1 µg/mL
Mtb [2]
  MIC: > 25 µg/mL
In vitro
  CC50: 25 to 50 µg/mL (≈ 57 to 114 µM)

## CC(C)OC(=O)NC(=O)c1ccsc1NC(=O)c1cn2ccccc2n1 [Compound 323]
Mtb [1]
  MIC: 1 to 3 µg/mL (≈ 2.69 to 8.06 µM)
Mtb [2]
  MIC: > 25 µg/mL

## CCOC(=O)NC(=O)c1ccsc1NC(=O)c1nc2cc(C#N)cnc2s1 [Compound 54]
Mtb [1]
  MIC: < 1 µg/mL
Mtb [2]
  MIC: > 25 µg/mL

## CC(C)OC(=O)NC(=O)c1ccsc1NC(=O)c1cc2c(F)cccc2s1 [Compound 330]
Mtb [1]
  MIC: < 1 µg/mL
Mtb [2]
  MIC: 5 to 25 µg/mL (≈ 12.3 to 61.5 µM)
In vitro
  CC50: < 25 µg/mL

## O=C(NC(=O)c1ccsc1NC(=O)c1nc2cnccc2s1)OCc1ccccc1F [Compound 287]
Mtb [1]
  MIC: 1 to 3 µg/mL (≈ 2.19 to 6.57 µM)
Mtb [2]
  MIC: 5 to 25 µg/mL (≈ 11 to 54.8 µM)
In vitro
  CC50: 25 to 50 µg/mL (≈ 54.8 to 110 µM)

## O=C(Nc1sccc1C(=O)OCCN1CCOCC1)c1nc2ccccc2s1 [Compound 291]
Mtb [1]
  MIC: > 3 µg/mL
Mtb [2]
  MIC: > 25 µg/mL
In vitro
  CC50: > 50 µg/mL

## O=C(NC(=O)c1ccsc1NC(=O)c1cnc2ccnn2c1)OC1CCC1 [Compound 324]
Mtb [1]
  MIC: < 1 µg/mL
Mtb [2]
  MIC: > 25 µg/mL

## CCOC(=O)NC(=O)c1ccsc1NC(=O)c1ccc2nccnc2c1 [Compound 398]
Mtb [1]
  MIC: < 1 µg/mL
Mtb [2]
  MIC: 5 to 25 µg/mL (≈ 13.5 to 67.5 µM)
In vitro
  CC50: < 25 µg/mL

## CCOC(=O)NC(=O)c1ccsc1NC(=O)c1cccnn1 [Compound 249]
Mtb [1]
  MIC: > 3 µg/mL
Mtb [2]
  MIC: > 25 µg/mL

## CCOC(=O)NC(=O)c1ccsc1NC(=O)c1c(C)nc2ccc(C)cn12 [Compound 336]
Mtb [1]
  MIC: > 3 µg/mL
Mtb [2]
  MIC: > 25 µg/mL
In vitro
  CC50: 25 to 50 µg/mL (≈ 64.7 to 129 µM)

## C=CCOC(=O)NC(=O)c1ccsc1NC(=O)c1cnc2ccnn2c1 [Compound 297]
Mtb [1]
  MIC: < 1 µg/mL
Mtb [2]
  MIC: < 5 µg/mL
In vitro
  CC50: < 25 µg/mL

## CCOC(=O)NC(=O)c1ccsc1NC(=O)c1csc(-c2ccccn2)n1 [Compound 133]
Mtb [1]
  MIC: > 3 µg/mL
Mtb [2]
  MIC: > 25 µg/mL
In vitro
  CC50: > 50 µg/mL

## CCOC(=O)NC(=O)c1cc(F)sc1NC(=O)c1cnc2ccnn2c1 [Compound 341]
Mtb [1]
  MIC: < 1 µg/mL
Mtb [2]
  MIC: > 25 µg/mL
In vitro
  CC50: 25 to 50 µg/mL (≈ 66.3 to 133 µM)

## CCOC(=O)NC(=O)c1ccsc1NC(=O)c1sc2ccccc2c1Cl [Compound 88]
Mtb [1]
  MIC: < 1 µg/mL
Mtb [2]
  MIC: 5 to 25 µg/mL (≈ 12.2 to 61.1 µM)
In vitro
  CC50: > 50 µg/mL

## O=C(NC(=O)c1ccsc1NC(=O)c1nc2ccccc2s1)OC1CCC1 [Compound 321]
Mtb [1]
  MIC: < 1 µg/mL
Mtb [2]
  MIC: > 25 µg/mL
In vitro
  CC50: > 50 µg/mL

## CCOC(=O)NC(=O)c1ccsc1NC(=O)c1ccnc(NC(=O)N2CCN(C)CC2)c1.Cl.Cl [Compound 49]
Mtb [1]
  MIC: 1 to 3 µg/mL
Mtb [2]
  MIC: > 25 µg/mL
In vitro
  CC50: > 50 µg/mL

## CCOC(=O)NC(=O)c1cc(CC(C(=O)OCC)C(=O)OCC)sc1NC(=O)c1nc2cnccc2s1 [Compound 278]
Mtb [1]
  MIC: > 3 µg/mL
Mtb [2]
  MIC: > 25 µg/mL
In vitro
  CC50: > 50 µg/mL

## CCOC(=O)NC(=O)c1ccsc1NC(=O)c1ccnnc1 [Compound 86]
Mtb [1]
  MIC: 1 to 3 µg/mL (≈ 3.12 to 9.37 µM)
Mtb [2]
  MIC: 5 to 25 µg/mL (≈ 15.6 to 78 µM)
In vitro
  CC50: > 50 µg/mL

## COC(=O)NC(=O)c1ccsc1NC(=O)c1nc2cnccc2s1 [Compound 314]
Mtb [1]
  MIC: > 3 µg/mL
Mtb [2]
  MIC: > 25 µg/mL
In vitro
  CC50: 25 to 50 µg/mL (≈ 69 to 138 µM)

## CCOC(=O)NC(=O)c1ccsc1NC(=O)c1nc2cnc(Cl)cc2s1 [Compound 267]
Mtb [1]
  MIC: < 1 µg/mL
Mtb [2]
  MIC: > 25 µg/mL
In vitro
  CC50: > 50 µg/mL

## CCOC(=O)NC(=O)c1ccsc1NC(=O)c1cnc(OC)cn1 [Compound 127]
Mtb [1]
  MIC: > 3 µg/mL
Mtb [2]
  MIC: > 25 µg/mL
In vitro
  CC50: > 50 µg/mL

## CCOC(=O)NC(=O)c1ccsc1NC(=O)c1cnc2ncccn12 [Compound 80]
Mtb [1]
  MIC: 1 to 3 µg/mL (≈ 2.78 to 8.35 µM)
Mtb [2]
  MIC: > 25 µg/mL

## CCOC(=O)NC(=O)c1ccsc1NC(=O)c1nc2c(s1)CCN(C(=O)OC)C2 [Compound 95]
Mtb [1]
  MIC: < 1 µg/mL
Mtb [2]
  MIC: > 25 µg/mL
